# Measured values published in patent US11566007B2, “Ras inhibitors” (Revolution Medicines, Inc., priority 2019, dated 2023).
# Several values for one entry are separate records, joined by “and”; a condition that tells them apart may be missing. Identical values can stand only once.
# How the values were obtained:
# [1] = target: KRAS WT (Homo sapiens (Human), UniProt P01116+P62937); experiment: Ras-Raf (BRAF RBD) disruption / FRET / MOA assay, KRAS WT; assay type: biochemical; details: read-out: IC50* KRAS WT FRET data
# Chain of KRAS WT (P01116-2 other isoform, or with tags, fused parts or gaps): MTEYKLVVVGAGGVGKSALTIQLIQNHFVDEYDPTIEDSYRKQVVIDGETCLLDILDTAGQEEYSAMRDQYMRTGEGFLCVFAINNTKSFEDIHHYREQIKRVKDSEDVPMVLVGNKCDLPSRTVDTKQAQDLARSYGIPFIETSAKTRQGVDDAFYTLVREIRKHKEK
# Chain of KRAS WT (P62937 whole entry): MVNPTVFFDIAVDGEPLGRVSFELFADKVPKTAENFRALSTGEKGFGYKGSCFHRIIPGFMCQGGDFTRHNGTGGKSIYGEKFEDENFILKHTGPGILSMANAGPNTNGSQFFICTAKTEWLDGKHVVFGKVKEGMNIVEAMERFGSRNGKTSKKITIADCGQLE
# Outline: (§1)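 Compounds, top final concentration 30 μM in 10-point 3-fold series, incubated 3 hours at 25° C with nucleotide-loaded Ras, cyclophilin A and BRAF RBD.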
# [2] = target: NRAS G12C (Homo sapiens (Human), UniProt P01111+P62937, G12C); experiment: Ras-Raf (BRAF RBD) disruption / FRET / MOA assay, NRAS G12C; assay type: biochemical; details: read-out: IC50* NRAS G12C FRET data
# Chain of NRAS G12C (P01111 whole entry G12C): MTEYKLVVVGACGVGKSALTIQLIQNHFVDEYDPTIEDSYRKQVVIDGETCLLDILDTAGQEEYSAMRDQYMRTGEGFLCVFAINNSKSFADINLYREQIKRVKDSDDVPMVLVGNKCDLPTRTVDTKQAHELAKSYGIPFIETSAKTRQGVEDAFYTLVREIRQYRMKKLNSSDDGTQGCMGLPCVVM
# Chain of NRAS G12C (P62937 whole entry): as the sequence (P62937 whole entry) above
# Outline: as §1
# [3] = target: KRAS G12D (Homo sapiens (Human), UniProt P01116+P62937, G12D); experiment: Ras-Raf (BRAF RBD) disruption / FRET / MOA assay, KRAS G12D; assay type: biochemical; details: Ras-Raf disruption/FRET/MOA assay; class symbols; read-out: KRAS G12D FRET data IC50
# Chain of KRAS G12D (P01116-2 other isoform, or with tags, fused parts or gaps G12D): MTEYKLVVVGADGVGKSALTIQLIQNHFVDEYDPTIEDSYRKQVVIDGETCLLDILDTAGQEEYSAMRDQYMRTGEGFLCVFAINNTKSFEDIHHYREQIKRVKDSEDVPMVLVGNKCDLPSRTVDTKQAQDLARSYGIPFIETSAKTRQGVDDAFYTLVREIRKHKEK
# Chain of KRAS G12D (P62937 whole entry): as the sequence (P62937 whole entry) above
# Outline: as §1
# [4] = target: KRAS G12S (Homo sapiens (Human), UniProt P01116+P62937, G12S); experiment: Ras-Raf (BRAF RBD) disruption / FRET / MOA assay, KRAS G12S; assay type: biochemical; details: Ras-Raf disruption/FRET/MOA assay; class symbols; read-out: KRAS G12S FRET data IC50
# Chain of KRAS G12S (P01116-2 other isoform, or with tags, fused parts or gaps G12S): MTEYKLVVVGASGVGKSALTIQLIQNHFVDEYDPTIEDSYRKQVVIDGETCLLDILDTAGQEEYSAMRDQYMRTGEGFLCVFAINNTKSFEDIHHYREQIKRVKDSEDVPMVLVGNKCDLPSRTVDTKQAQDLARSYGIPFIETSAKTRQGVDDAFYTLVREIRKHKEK
# Chain of KRAS G12S (P62937 whole entry): as the sequence (P62937 whole entry) above
# Outline: as §1
# [5] = target: K-Ras G13C (Homo sapiens (Human), UniProt P01116+P62937, G13C); experiment: Ras-Raf (BRAF RBD) disruption / FRET / MOA assay, KRAS G13C; assay type: biochemical; details: KRAS G13C; Ras-Raf disruption/FRET/MOA assay; read-out: IC50* KRAS G13C FRET data
# Chain of K-Ras G13C (P01116-2 other isoform, or with tags, fused parts or gaps G13C): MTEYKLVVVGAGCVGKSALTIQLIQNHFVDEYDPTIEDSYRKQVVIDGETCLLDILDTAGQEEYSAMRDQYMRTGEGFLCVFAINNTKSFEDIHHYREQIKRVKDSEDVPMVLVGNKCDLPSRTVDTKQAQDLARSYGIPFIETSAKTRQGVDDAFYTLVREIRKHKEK
# Chain of K-Ras G13C (P62937 whole entry): as the sequence (P62937 whole entry) above
# Outline: as §1
# [6] = target: K-Ras G12C (Homo sapiens (Human), UniProt P01116+P62937, G12C); experiment: Ras-Raf (BRAF RBD) disruption / FRET / MOA assay, KRAS G12C; assay type: biochemical; details: KRAS G12C; Ras-Raf disruption/FRET/MOA assay; read-out: IC50* KRAS G12C FRET data
# Chain of K-Ras G12C (P01116-2 other isoform, or with tags, fused parts or gaps G12C): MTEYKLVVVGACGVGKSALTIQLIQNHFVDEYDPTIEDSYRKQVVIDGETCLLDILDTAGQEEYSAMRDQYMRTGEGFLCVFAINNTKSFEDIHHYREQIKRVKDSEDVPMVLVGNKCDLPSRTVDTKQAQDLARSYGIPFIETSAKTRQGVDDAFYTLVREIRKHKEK
# Chain of K-Ras G12C (P62937 whole entry): as the sequence (P62937 whole entry) above
# Outline: as §1
# [7] = target: KRAS G13D (Homo sapiens (Human), UniProt P01116+P62937, G13D); experiment: Ras-Raf (BRAF RBD) disruption / FRET / MOA assay, KRAS G13D; assay type: biochemical; details: read-out: IC50* KRAS G13D FRET data
# Chain of KRAS G13D (P01116-2 other isoform, or with tags, fused parts or gaps G13D): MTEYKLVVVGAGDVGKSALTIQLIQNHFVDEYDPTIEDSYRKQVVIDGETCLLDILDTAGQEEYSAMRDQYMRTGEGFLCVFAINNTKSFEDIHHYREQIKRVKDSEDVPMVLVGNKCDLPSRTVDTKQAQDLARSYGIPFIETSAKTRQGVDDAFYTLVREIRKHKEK
# Chain of KRAS G13D (P62937 whole entry, canonical isoform): as the sequence (P62937 whole entry) above
# Description: The purpose of this biochemical assay is to measure the ability of test compounds to facilitate ternary complex formation between a nucleotide-loaded Ras isoform and cyclophilin A; the resulting ternary complex disrupts binding to a BRAF^RBD construct, inhibiting Ras signaling through a RAF effector.
# (§2) Compound is present in plate wells as a 10-point 3-fold dilution series starting at a final concentration of 30 μM. After incubation at 25° C. for 3 hours, a mixture of Anti-His Eu-W1024 and anti-GST allophycocyanin is then added to assay sample wells at final concentrations of 10 nM and 50 nM, respectively, and the reaction incubated for an additional 1.5 hours. […] Compounds that facilitate disruption of a Ras:RAF complex are identified as those eliciting a decrease in the TR-FRET ratio relative to DMSO control wells.
# This protocol may also be executed substituting other Ras proteins or nucleotides.
# The purpose of this biochemical assay was to measure the ability of test compounds to facilitate ternary complex formation between a nucleotide-loaded K-Ras isoform and Cyclophilin A; the resulting ternary complex disrupts binding to a BRAF^RBD construct, inhibiting K-Ras signaling through a RAF effector. Data is reported as IC50 values.
# as §2, with “Compound was” for “Compound is”, “allophycocyanin was” for “allophycocyanin is”, “a K-Ras:RAF” for “a Ras:RAF”, “complex were” for “complex are”
# [8] = target: KRAS G12V (Homo sapiens (Human), UniProt P01116+P62937, G12V); experiment: Ras-Raf (BRAF RBD) disruption / FRET / MOA assay, KRAS G12V; assay type: biochemical; details: read-out: IC50* KRAS G12V FRET data
# Chain of KRAS G12V (P01116-2 other isoform, or with tags, fused parts or gaps G12V): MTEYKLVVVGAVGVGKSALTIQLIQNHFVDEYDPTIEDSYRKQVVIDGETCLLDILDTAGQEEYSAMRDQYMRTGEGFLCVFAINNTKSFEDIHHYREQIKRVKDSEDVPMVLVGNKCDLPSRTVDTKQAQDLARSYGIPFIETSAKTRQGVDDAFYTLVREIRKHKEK
# Chain of KRAS G12V (P62937 whole entry): as the sequence (P62937 whole entry) above
# Outline: as §1
# [9] = system: NCI-H358 cells (K-Ras G12C); experiment: Potency assay: pERK in NCI-H358 cells; assay type: cell-based, human; details: Homo sapiens, NCI-H358; H358 KRAS G12C; read-out: pERK EC50
# Outline: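 pERK decrease read by AlphaLISA SureFire p-ERK1/2 or In-Cell Western after 4 h compound exposure at 37 °C, 5% CO2.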
Compound,IC50 [1],IC50 [2],IC50 [3],IC50 [4],IC50 [5],IC50 [6],IC50 [7],IC50 [8],EC50 [9] [µM]
CCn1c(-c2cccnc2COC)c2c3cc(ccc31)-c1cc(O)cc(c1)C[C@H](NC(=O)[C@H](C(C)C)N(C)C(=O)[C@H]1CCN(C(=O)C#CCN3[C@@H](C)COC[C@@H]3C)C1)C(=O)N1CCC[C@H](N1)C(=O)OCC(C)(C)C2 [Example A209],1 to 10 µM and > 10 µM,0.1 to 1 µM and < 0.01 µM,> 10 µM,1 to 10 µM and > 10 µM,0.1 to 1 µM and > 10 µM,0.01 to 0.1 µM and < 0.01 µM,1 to 10 µM and > 10 µM,0.1 to 1 µM and > 10 µM,< 5
C=CC(=O)C1C[C@@H](C(=O)N(C)[C@H](C(=O)N[C@H]2Cc3cc(O)cc(c3)-c3ccc4c(c3)c(c(-c3ccccc3CCOC)n4CC)CC(C)(C)COC(=O)[C@@H]3CCCN(N3)C2=O)C(C)C)[C@@H](OC)N1 (stereo partly drawn) [Example A214],1 to 10 µM,100 nM to 1 µM and > 10 µM (2×),> 10 µM,1 µM to 10 µM (2×) and > 10 µM (2×),1 µM to 10 µM (3×) and > 10 µM,10 nM to 100 nM (2×) and 1 µM to 10 µM (2×),> 10 µM,> 10 µM,< 5
"CCn1c(-c2cccnc2[C@H](C)OC)c2c3cc(ccc31)-c1cc(O)cc(c1)C[C@H](NC(=O)[C@H](C(C)C)N(C)C(=O)[C@H]1CCN(C(=O)/C=C/CN3CCOCC3)C1)C(=O)N1CCC[C@H](N1)C(=O)OCC(C)(C)C2 (atropisomer, axis not shown) [Example A184]",0.1 to 1 µM and > 10 µM,0.1 to 1 µM and < 0.01 µM,> 10 µM and 0.1 to 1 µM,1 to 10 µM and 0.01 to 0.1 µM,0.1 to 1 µM and > 10 µM,0.1 to 1 µM and < 0.01 µM,0.1 to 1 µM and > 10 µM,1 to 10 µM and 0.01 to 0.1 µM,< 5

# Further lines, results first:
IC50 [1],IC50 [2],IC50 [3],IC50 [4],IC50 [5],IC50 [6],IC50 [7],IC50 [8],EC50 [9] [µM],Compound
1 to 10 µM and 0.01 to 0.1 µM,0.01 to 0.1 µM and < 0.01 µM,1 to 10 µM and 0.01 to 0.1 µM,1 to 10 µM and 0.01 to 0.1 µM,0.01 to 0.1 µM and 1 to 10 µM,0.01 to 0.1 µM and < 0.01 µM,1 to 10 µM and 0.01 to 0.1 µM,0.1 to 1 µM and 0.01 to 0.1 µM,< 5,"CCn1c(-c2cccnc2[C@H](C)OC)c2c3cc(ccc31)-c1cc(O)cc(c1)C[C@H](NC(=O)[C@H](C(C)C)N(C)C(=O)[C@H]1CCN(C(=O)/C=C/CN(C)C)C1)C(=O)N1CCC[C@H](N1)C(=O)OCC(C)(C)C2 (atropisomer, axis not shown) [Example A183]"
> 10 µM,0.01 to 0.1 µM and 0.1 to 1 µM,1 to 10 µM,> 10 µM,1 to 10 µM,0.01 to 0.1 µM and 0.1 to 1 µM,1 to 10 µM,> 10 µM,< 5,CCn1c(-c2cncnc2)c2c3cc(ccc31)-c1cccc(c1)C[C@H](NC(=O)[C@H](C(C)C)N(C)C(=O)[C@H]1CCN(C(=O)C#CCN(C)C)C1)C(=O)N1CCC[C@H](N1)C(=O)OCC(C)(C)C2 [Example A144]
1 to 10 µM and > 10 µM,0.01 to 0.1 µM and < 0.01 µM,1 to 10 µM and > 10 µM,0.1 to 1 µM and > 10 µM,0.01 to 0.1 µM and 0.1 to 1 µM,0.01 to 0.1 µM and < 0.01 µM,0.1 to 1 µM and > 10 µM,0.1 to 1 µM and > 10 µM,< 5,CCn1c(-c2cccnc2COC)c2c3cc(ccc31)-c1cc(O)cc(c1)C[C@H](NC(=O)[C@H](C(C)C)N(C)C(=O)[C@H]1CCN(C(=O)C#C[C@@H]3CCCN3C)C1)C(=O)N1CCC[C@H](N1)C(=O)OCC(C)(C)C2 [Example A196]
1 to 10 µM and > 10 µM,0.01 to 0.1 µM and 1 to 10 µM,> 10 µM,1 to 10 µM and > 10 µM,> 10 µM and 1 to 10 µM,0.01 to 0.1 µM and 1 to 10 µM,1 to 10 µM and > 10 µM,1 to 10 µM and > 10 µM,< 5,"CCn1c(-c2cccnc2[C@H](C)OC)c2c3cc(ccc31)-c1cccc(c1)C[C@H](NC(=O)[C@H](C(C)C)N(C)C(=O)[C@H]1CCN(C(=O)/C=C/CN(C)C)C1)C(=O)N1CCC[C@H](N1)C(=O)OCC(C)(C)C2 (atropisomer, axis not shown) [Example A187]"
